Measurements: patent EP4729529A1, “PREPARATION OF PEPTIDE INHIBITOR OF INTERLEUKIN-23 RECEPTOR AND USE THEREOF” (Xizang Haisco Pharmaceutical Co., Ltd., priority 2023, dated 2024)
Starred links: 1 amine or outer side, 2 acyl side, 3 side chain; linkers in the order of their positions; H or OH if unused. Positions of bridges follow the written chain, without caps; N, C: chain ends. Non-standard residues stand in square brackets, D forms with d. Residues, ends and D or L forms follow the SMILES beside them. *: point of attachment. Phe(4-OC2H4NH2,2,3-(CH2)3) = NCCOc1ccc(C[C@H](N)C(=O)O)c2c1CCC2; Trp(7-cPr) = N[C@@H](Cc1c[nH]c2c(C3CC3)cccc12)C(=O)O; X4 = COCCOCCOCCOCCOCCOCCOCCOCCOCCOCCOCCOCCOCC(=O)*; Trp(7-Me) = Cc1cccc2c(C[C@H](N)C(=O)O)c[nH]c12; C18 diacid = O=C(O)CCCCCCCCCCCCCCCCC(=O)*; X6 = COCCOCCOCCOCCOCCOCCOCCOCCOCCOCC(=O)*; γGlu = O=C(O)[C@H](CCC(=O)[*:2])N[*:1]; 2Nal = N[C@@H](Cc1ccc2ccccc2c1)C(=O)O; TBMB = c1c(C[*:1])cc(C[*:3])cc1C[*:2]; X1 = O=C(C(N[*:1])C1(S[*:3])CC1)[*:2]; Thp(SO2) = NC1(C(=O)O)CCS(=O)(=O)CC1; mXylylene = c1cc(C[*:1])cc(C[*:2])c1; AEF = NCCOc1ccc(C[C@H](N)C(=O)O)cc1; 3Pal = N[C@@H](Cc1cccnc1)C(=O)O; X5 = COCCOCCOCCOCCOCCOCC(=O)*; Pen = CC(C)(S)[C@H](N)C(=O)O; Thp = NC1(C(=O)O)CCOCC1; Dap = NC[C@H](N)C(=O)O; AEEA = NCCOCCOCC(=O)O; CO = O=C([*:1])[*:2]; AEA = NCCOCC(=O)O; Sar = CNCC(=O)O

Biological target: T1, IL-23α/IL-12β and IL-23R (Homo sapiens, UniProt Q5VWK5)
T1 construct: purchased ACRO ILR-H82F3 (IL-23R); ILB-H52W5 (IL-23α/IL-12β)
T1 sequence (Q5VWK5 24-353 limits assumed): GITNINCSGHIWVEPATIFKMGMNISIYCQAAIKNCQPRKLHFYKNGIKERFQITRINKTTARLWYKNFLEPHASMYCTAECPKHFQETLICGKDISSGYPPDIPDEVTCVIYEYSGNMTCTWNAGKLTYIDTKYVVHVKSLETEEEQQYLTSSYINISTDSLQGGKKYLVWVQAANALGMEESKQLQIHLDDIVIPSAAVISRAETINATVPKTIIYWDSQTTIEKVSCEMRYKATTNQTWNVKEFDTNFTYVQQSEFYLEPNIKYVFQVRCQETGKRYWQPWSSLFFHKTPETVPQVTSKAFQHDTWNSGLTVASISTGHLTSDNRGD
Test: IL-23α/IL-12β and IL-23R binding assay (TR-FRET/HTRF)
Conditions: inhibition of the binding of IL-23α/IL-12β to IL-23R, TR-FRET; both proteins 0.3 nM
Experimental: 1. IL-23α/IL-12β and IL-23R binding assay
Compounds were tested for their inhibition on the binding of IL-23α/IL-12β to IL-23R by the TR-FRET method. Solutions of proteins IL-23α/IL-12β (ACRO, Cat# ILB-H52W5) and IL-23R (ACRO, Cat# ILR-H82F3) were prepared in reaction buffer PPI (PerkinElmer, Cat# 61DB10RDF). The final concentrations of IL-23α/IL-12β and IL-23R in the reaction mixture were both 0.3 nM. Positive reference Guselkumab was 3-fold diluted from an initial concentration of 30 nM, with 10 doses. 0.1 µL of the positive reference diluted in the reaction buffer was delivered to a 384-well plate (Grenier, Cat# 784075) by the acoustic liquid delivery technique (Echo 655), and the plate was centrifuged at 1000 rpm for 1 minute. 2.5 µL of IL-23α/IL-12β solution was transferred into the 384-well reaction plate, and the plate was centrifuged at 1000 rpm for 1 minute, and incubated at 25°C for 60 minutes. 2.5 µL of IL-23R solution was transferred into the 384-well reaction plate, and the plate was centrifuged at 1000 rpm for 1 minute. 5 µL of Streptavidin-Tb cryptate and Anti 6HIS-d2 detection mixture was transferred into the 384-well reaction plate, and the plate was centrifuged at 1000 rpm for 1 minute, and incubated at 25°C for 60 minutes. Finally, the HTRF signal (Ratio 665/620 nm) was read with a BMG high-throughput drug screening multifunctional microplate reader. IC50 values were obtained by nonlinear regression curve fitting using GraphPad Prism software.

| Structure (SMILES) | IC50 [nM] |
| --- | --- |
| CC(=O)NCCCC[C@@H]1NC(=O)[C@H](Cc2c[nH]c3c(C)cccc23)NC(=O)[C@H]([C@@H](C)O)NC(=O)[C@H](Cc2c[nH]cn2)NC(=O)[C@H]2NC(=O)COCCNC(=O)CC[C@@H](C(=O)N[C@@H](CC(N)=O)C(=O)N[C@@H](Cc3cccnc3)C(=O)N(C)CC(N)=O)NC(=O)C3(CCOCC3)NC(=O)[C@H](Cc3ccc4ccccc4c3)NC(=O)[C@H](Cc3ccc(OCCN)cc3)NC(=O)[C@@H](NC1=O)C(C)(C)SSC2(C)C [Compound 38] ([AEA][Pen]HT[Trp(7-Me)]K(Ac)[Pen][AEF][2Nal][Thp]EN[3Pal][Sar]-NH2; disulfide 2-7 (inferred); lactam N-11 (inferred)) | 0.212 |
| CC(=O)N[C@H]1CNC(=O)NC[C@@H](C(=O)N[C@@H](Cc2ccc(OCCN)cc2)C(=O)N[C@@H](Cc2ccc3ccccc3c2)C(=O)NC2(C(=O)N[C@@H](CCC(=O)O)C(=O)N[C@@H](CC(N)=O)C(=O)N[C@@H](Cc3cccnc3)C(=O)N(C)CC(N)=O)CCOCC2)NC(=O)[C@H](CCC(N)=O)NC(=O)[C@H](Cc2c[nH]c3c(C)cccc23)NC(=O)[C@H]([C@@H](C)O)NC(=O)[C@H](Cc2c[nH]cn2)NC1=O [Compound 23] (Ac-[Dap]HT[Trp(7-Me)]Q[Dap][AEF][2Nal][Thp]EN[3Pal][Sar]-NH2; linker 1-6 via CO) | 0.161 |
| CC(=O)N[C@H]1CSCc2cc3cc(c2)CSC[C@@H](C(=O)N[C@@H](CC(N)=O)C(=O)N[C@@H](Cc2cccnc2)C(=O)N(C)CC(N)=O)NC(=O)C2(CCS(=O)(=O)CC2)NC(=O)[C@H](Cc2ccc4ccccc4c2)NC(=O)[C@H](Cc2ccc(OCCN)c4c2CCC4)NC(=O)[C@H](CSC3)NC(=O)[C@H](CCC(N)=O)NC(=O)[C@H](Cc2c[nH]c3c(C)cccc23)NC(=O)[C@H]([C@@H](C)O)NC(=O)[C@H](Cc2c[nH]cn2)NC1=O [Compound 19] (Ac-CHT[Trp(7-Me)]QC[Phe(4-OC2H4NH2,2,3-(CH2)3)][2Nal][Thp(SO2)]CN[3Pal][Sar]-NH2; linker 1-6-10 via TBMB) | 0.248 |
| CC(=O)N[C@H]1CSCc2cccc(c2)CSC[C@@H](C(=O)N[C@@H](Cc2ccc(OCCN)c3c2CCC3)C(=O)N[C@@H](Cc2ccc3ccccc3c2)C(=O)NC2(C(=O)N[C@@H](CCC(=O)O)C(=O)N[C@@H](CC(N)=O)C(=O)N[C@@H](Cc3cccnc3)C(=O)N(C)CC(N)=O)CCS(=O)(=O)CC2)NC(=O)[C@H](CCC(N)=O)NC(=O)[C@H](Cc2c[nH]c3c(C)cccc23)NC(=O)[C@H]([C@@H](C)O)NC(=O)[C@H](Cc2c[nH]cn2)NC1=O [Compound 30] (Ac-CHT[Trp(7-Me)]QC[Phe(4-OC2H4NH2,2,3-(CH2)3)][2Nal][Thp(SO2)]EN[3Pal][Sar]-NH2; linker 1-6 via mXylylene) | 0.46 |
| COCCOCCOCCOCCOCCOCCOCCOCCOCCOCCOCCOCCOCC(=O)N[C@@H]1C(=O)N[C@@H](Cc2c[nH]cn2)C(=O)N[C@@H]([C@@H](C)O)C(=O)N[C@@H](Cc2c[nH]c3c(C4CC4)cccc23)C(=O)N[C@@H](CCC(N)=O)C(=O)N[C@H](C(=O)N[C@@H](Cc2ccc(OCCN)c3c2CCC3)C(=O)N[C@@H](Cc2ccc3ccccc3c2)C(=O)NC2(C(=O)N[C@@H](CCC(=O)O)C(=O)N[C@@H](CC(N)=O)C(=O)N[C@@H](Cc3cccnc3)C(=O)N(C)CC(N)=O)CCS(=O)(=O)CC2)C(C)(C)SSC1(C)C [Compound 46] (X4-[Pen]HT[Trp(7-cPr)]Q[Pen][Phe(4-OC2H4NH2,2,3-(CH2)3)][2Nal][Thp(SO2)]EN[3Pal][Sar]-NH2; disulfide 1-6) | 0.095 |
| COCCOCCOCCOCCOCCOCC(=O)N[C@@H]1C(=O)N[C@@H](Cc2c[nH]cn2)C(=O)N[C@@H]([C@@H](C)O)C(=O)N[C@@H](Cc2c[nH]c3c(C4CC4)cccc23)C(=O)N[C@@H](CCC(N)=O)C(=O)N[C@H](C(=O)N[C@@H](Cc2ccc(OCCN)c3c2CCC3)C(=O)N[C@@H](Cc2ccc3ccccc3c2)C(=O)NC2(C(=O)N[C@@H](CCC(=O)O)C(=O)N[C@@H](CC(N)=O)C(=O)N[C@@H](Cc3cccnc3)C(=O)N(C)CC(N)=O)CCS(=O)(=O)CC2)C(C)(C)SSC1(C)C [Compound 35] (X5-[Pen]HT[Trp(7-cPr)]Q[Pen][Phe(4-OC2H4NH2,2,3-(CH2)3)][2Nal][Thp(SO2)]EN[3Pal][Sar]-NH2; disulfide 1-6) | 0.063 |
| CC(=O)NC1C(=O)N[C@@H](Cc2c[nH]cn2)C(=O)N[C@@H]([C@@H](C)O)C(=O)N[C@@H](Cc2c[nH]c3c(C4CC4)cccc23)C(=O)N[C@@H](CCC(N)=O)C(=O)NC(C(=O)N[C@@H](Cc2ccc(OCCN)c3c2CCC3)C(=O)N[C@@H](Cc2ccc3ccccc3c2)C(=O)NC2(C(=O)N[C@@H](CCC(=O)O)C(=O)N[C@@H](CC(N)=O)C(=O)N[C@@H](Cc3cccnc3)C(=O)N(C)CC(N)=O)CCS(=O)(=O)CC2)C2(CC2)SSC12CC2 (stereo partly drawn) [Compound 54] (Ac-[X1]HT[Trp(7-cPr)]Q[X1][Phe(4-OC2H4NH2,2,3-(CH2)3)][2Nal][Thp(SO2)]EN[3Pal][Sar]-NH2; disulfide 1-6) | 0.091 |
| CC(=O)NC1C(=O)N[C@@H](Cc2c[nH]cn2)C(=O)N[C@@H]([C@@H](C)O)C(=O)N[C@@H](Cc2c[nH]c3c(C)cccc23)C(=O)N[C@@H](CCC(N)=O)C(=O)NC(C(=O)N[C@@H](Cc2ccc(OCCN)c3c2CCC3)C(=O)N[C@@H](Cc2ccc3ccccc3c2)C(=O)NC2(C(=O)N[C@@H](CCC(=O)O)C(=O)N[C@@H](CC(N)=O)C(=O)N[C@@H](Cc3cccnc3)C(=O)N(C)CC(N)=O)CCS(=O)(=O)CC2)C2(CC2)SSC12CC2 (stereo partly drawn) [Compound 55] (Ac-[X1]HT[Trp(7-Me)]Q[X1][Phe(4-OC2H4NH2,2,3-(CH2)3)][2Nal][Thp(SO2)]EN[3Pal][Sar]-NH2; disulfide 1-6) | 0.068 |
| C[C@@H](O)[C@@H]1NC(=O)[C@H](Cc2c[nH]cn2)NC(=O)[C@@H](NC(=O)COCCOCCNC(=O)COCCOCCNC(=O)CC[C@H](NC(=O)CCCCCCCCCCCCCCCCC(=O)O)C(=O)O)C(C)(C)SSC(C)(C)[C@@H](C(=O)N[C@@H](Cc2ccc(OCCN)c3c2CCC3)C(=O)N[C@@H](Cc2ccc3ccccc3c2)C(=O)NC2(C(=O)N[C@@H](CCC(=O)O)C(=O)N[C@@H](CC(N)=O)C(=O)N[C@@H](Cc3cccnc3)C(=O)N(C)CC(N)=O)CCS(=O)(=O)CC2)NC(=O)[C@H](CCC(N)=O)NC(=O)[C@H](Cc2c[nH]c3c(C4CC4)cccc23)NC1=O [Compound 20] ({C18 diacid-γGlu-AEEA-AEEA}-[Pen]HT[Trp(7-cPr)]Q[Pen][Phe(4-OC2H4NH2,2,3-(CH2)3)][2Nal][Thp(SO2)]EN[3Pal][Sar]-NH2; disulfide 1-6) | 0.116 |
| CC(=O)NCCCC[C@@H]1NC(=O)[C@H](Cc2c[nH]c3c(C)cccc23)NC(=O)[C@H]([C@@H](C)O)NC(=O)[C@H](CC(N)=O)NC(=O)C(NC(C)=O)CCCC[C@@H](C(=O)N[C@@H](Cc2ccc(OCCN)cc2)C(=O)N[C@@H](Cc2ccc3ccccc3c2)C(=O)NC2(C(=O)N[C@@H](CCC(=O)O)C(=O)N[C@@H](CC(N)=O)C(=O)N[C@@H](Cc3cccnc3)C(=O)N(C)CC(N)=O)CCOCC2)NC1=O (single isomer, unassigned) [Compound 44-2] | 0.134 |
| COCCOCCOCCOCCOCCOCCOCCOCCOCCOCC(=O)N[C@@H]1C(=O)N[C@@H](Cc2c[nH]cn2)C(=O)N[C@@H]([C@@H](C)O)C(=O)N[C@@H](Cc2c[nH]c3c(C4CC4)cccc23)C(=O)N[C@@H](CCC(N)=O)C(=O)N[C@H](C(=O)N[C@@H](Cc2ccc(OCCN)c3c2CCC3)C(=O)N[C@@H](Cc2ccc3ccccc3c2)C(=O)NC2(C(=O)N[C@@H](CCC(=O)O)C(=O)N[C@@H](CC(N)=O)C(=O)N[C@@H](Cc3cccnc3)C(=O)N(C)CC(N)=O)CCS(=O)(=O)CC2)C(C)(C)SSC1(C)C [Compound 39] (X6-[Pen]HT[Trp(7-cPr)]Q[Pen][Phe(4-OC2H4NH2,2,3-(CH2)3)][2Nal][Thp(SO2)]EN[3Pal][Sar]-NH2; disulfide 1-6) | 0.057 |
| CC(=O)NCCCC[C@@H]1NC(=O)[C@H](Cc2c[nH]c3c(C)cccc23)NC(=O)[C@H]([C@@H](C)O)NC(=O)[C@H](CC(N)=O)NC(=O)C(NC(C)=O)C2(CC2)SSC(C)(C)[C@@H](C(=O)N[C@@H](Cc2ccc(OCCN)cc2)C(=O)N[C@@H](Cc2ccc3ccccc3c2)C(=O)NC2(C(=O)N[C@@H](CCC(=O)O)C(=O)N[C@@H](CC(N)=O)C(=O)N[C@@H](Cc3cccnc3)C(=O)N(C)CC(N)=O)CCOCC2)NC1=O (stereo partly drawn) [Compound 37] (Ac-[X1]NT[Trp(7-Me)]K(Ac)[Pen][AEF][2Nal][Thp]EN[3Pal][Sar]-NH2; disulfide 1-6 (inferred)) | 0.05 |
